Our source for the Renilla reporter induction, Induction and EC50 values is paper PMC3115594 (Current Chemical Genomics, 2010).

The test system of assay [1] is constitutive Renilla reporter expression in HEK293 cells. As to the kind of experiment: Renilla luciferase internal control reporter. Type of assay: cell-based. The conditions noted are these: E2 titration, treated/untreated (Fig. 5).
Assay [2] addresses T1, GR (pBIND-GR, GR-LBD/GAL4 DBD) (Homo sapiens, UniProt P04150).
T1 sequence (P04150 500-777): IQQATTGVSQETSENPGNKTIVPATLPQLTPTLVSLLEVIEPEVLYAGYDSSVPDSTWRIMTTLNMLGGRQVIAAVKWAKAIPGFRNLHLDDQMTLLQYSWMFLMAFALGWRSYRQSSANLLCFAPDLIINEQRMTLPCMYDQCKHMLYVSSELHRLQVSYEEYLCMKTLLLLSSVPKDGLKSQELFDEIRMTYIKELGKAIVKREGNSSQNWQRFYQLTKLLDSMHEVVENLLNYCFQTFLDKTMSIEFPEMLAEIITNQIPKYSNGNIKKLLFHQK
Type of assay: cell-based. The conditions noted are these: for Induction: GR agonist, fold-induction, 384-well.

The structures appear in SMILES notation.

For `C[C@]12CC[C@@H]3c4ccc(O)cc4CC[C@H]3[C@@H]1CC[C@@H]2O` [17β-estradiol, 17β- estradiol], the Renilla reporter induction result in assay [1] is recorded as “around 1.0”.

In turn, `C[C@@H]1C[C@H]2[C@@H]3CCC4=CC(=O)C=C[C@]4(C)[C@@]3(F)[C@@H](O)C[C@]2(C)[C@@]1(O)C(=O)CO` [Dexamethasone, dexamethasone] yielded an Induction in assay [2] of 760.

For `C[C@]12CCC(=O)C=C1CC[C@@H]1[C@@H]2[C@@H](O)C[C@@]2(C)[C@H]1CC[C@]2(O)C(=O)CO` [Hydrocortisone, hydrocortisone], the Induction in assay [2] came to 450.

As to `C[C@]12CCC(=O)C=C1CC[C@@H]1[C@@H]2[C@@H](O)C[C@]2(C=O)[C@@H](C(=O)CO)CC[C@@H]12` [aldosterone], in assay [2], it took 21 µM to reach a half-maximal effect (EC50) and the Induction is 42.

What is called EC50 is the concentration that produces a half-maximal response. Read a low EC50 as a more potent agent.
